The values below come from patent US7498358B2, “Human ADAM-10 inhibitors” (Exelixis, Inc., priority 2001, dated 2009).

Like-named read-outs stand apart in the source and are kept apart here.

Assay [1] relates to various metalloproteases. As to the kind of experiment: in vitro inhibition of various metalloproteases (Table 4). The assay is classed as biochemical. The note with it: Table 4, in vitro. Here is the method:
(§1) Inhibition is indicated as IC50 with the following key: A=IC50 less than 50 nM, B=IC50 greater than 50 nM, but less than 1000 nM, C=IC50 greater than […], but less than 20,000 nM, and D=IC50 greater than 20,000 nM.

The next assay has as its target T1, hADAM-10 (UniProt O14672).
T1 sequence (O14672 1-748): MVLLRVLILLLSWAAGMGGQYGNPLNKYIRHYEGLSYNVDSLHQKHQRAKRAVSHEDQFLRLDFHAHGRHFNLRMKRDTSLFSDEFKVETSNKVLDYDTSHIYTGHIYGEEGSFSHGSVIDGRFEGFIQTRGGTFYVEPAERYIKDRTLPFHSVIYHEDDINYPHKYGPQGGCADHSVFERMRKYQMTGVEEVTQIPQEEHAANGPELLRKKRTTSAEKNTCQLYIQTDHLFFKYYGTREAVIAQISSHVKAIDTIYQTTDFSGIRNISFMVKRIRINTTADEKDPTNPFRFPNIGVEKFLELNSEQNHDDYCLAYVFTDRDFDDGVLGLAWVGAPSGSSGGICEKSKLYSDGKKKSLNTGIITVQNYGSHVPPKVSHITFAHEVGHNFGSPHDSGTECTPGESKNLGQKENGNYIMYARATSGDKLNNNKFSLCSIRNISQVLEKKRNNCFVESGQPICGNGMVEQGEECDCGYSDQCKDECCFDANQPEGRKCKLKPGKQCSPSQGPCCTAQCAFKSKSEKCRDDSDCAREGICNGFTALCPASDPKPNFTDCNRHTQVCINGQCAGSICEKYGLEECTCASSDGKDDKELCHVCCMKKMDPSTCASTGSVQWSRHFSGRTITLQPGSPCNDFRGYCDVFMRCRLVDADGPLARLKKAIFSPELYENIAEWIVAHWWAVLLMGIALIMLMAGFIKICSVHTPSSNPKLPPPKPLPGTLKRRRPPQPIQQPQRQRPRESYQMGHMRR
The assay is described as follows: ADAM-10 enzyme assay: cleavage of fluorogenic 10-residue peptide (DABCYL/EDANS). The assay is classed as biochemical, human. The note with it: Table 4, in vitro. Here is the method: mADAM-10 or hADAM-10 activity was measured as the ability to cleave a 10-residue peptide (DABCYL-Leu-Leu-Ala-Gln-Lys-*-Leu-Arg-Ser-Ser-Arg-EDANS). […] Enzyme was diluted to a final active concentration of 5 nM in Buffer A (50 mM HEPES 8.0, 100 mM NaCl, 1 mM CaCl2 and 0.01% NP-40). Serial dilutions for compounds were performed ranging from 100 uM to 0.5 nM using a Beckman Biomek 2000 in polypropylene plates (Greiner). 20 μl of enzyme solution was added to 10 μl of compound in buffer A, and allowed to incubate for 15 min in 384 well black, Greiner, microtiter plates (#781076). 20 μl of substrate (12.5 uM in Buffer A) was then added, resulting in final reaction conditions of 2 nM ADAM-10, 5 μM substrate, and compound concentrations ranging from 20 uM to 0.1 nM. The reaction was incubated for 2 hr at RT, and fluorescence was measured at Ex355, Em460 on a Wallac Victor 2 fluorescence reader. For final analysis of potent inhibitors, a similar reaction was set up with a final active ADAM-10 concentration of 0.1 nM. This reaction was incubated for 16 hr at RT and fluorescence was read using identical conditions.
as §1

The target in assay [2] is T2, various metalloproteases (Homo sapiens, UniProt P08253).
T2 sequence (P08253 110-660): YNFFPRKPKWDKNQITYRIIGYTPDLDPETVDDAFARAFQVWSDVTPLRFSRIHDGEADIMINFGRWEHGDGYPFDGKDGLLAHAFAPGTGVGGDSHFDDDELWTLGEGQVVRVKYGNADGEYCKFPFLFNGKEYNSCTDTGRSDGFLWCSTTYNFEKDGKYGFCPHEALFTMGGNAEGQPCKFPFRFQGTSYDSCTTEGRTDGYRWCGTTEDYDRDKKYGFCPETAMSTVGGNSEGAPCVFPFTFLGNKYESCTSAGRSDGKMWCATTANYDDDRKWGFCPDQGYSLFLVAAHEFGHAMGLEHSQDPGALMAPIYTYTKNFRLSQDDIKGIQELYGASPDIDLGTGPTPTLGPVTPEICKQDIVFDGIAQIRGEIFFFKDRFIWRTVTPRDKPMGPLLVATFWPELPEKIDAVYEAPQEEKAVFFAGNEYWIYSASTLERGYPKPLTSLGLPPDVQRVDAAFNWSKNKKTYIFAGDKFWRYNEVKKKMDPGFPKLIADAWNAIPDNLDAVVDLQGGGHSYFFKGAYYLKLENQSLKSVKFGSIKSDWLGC
As to the kind of experiment: in vitro inhibition of various metalloproteases (Table 4). The note with it: MMP2; Table 4, in vitro. The assay is classed as biochemical. Here is the method: as §1

The target in assay [3] is various metalloproteases (Homo sapiens, UniProt P08254). Described as above. Type of assay: biochemical. The note with it: MMP3; Table 4, in vitro. Here is the method: as §1
various metalloproteases (Homo sapiens, UniProt P08254), sequence (P08254 100-477): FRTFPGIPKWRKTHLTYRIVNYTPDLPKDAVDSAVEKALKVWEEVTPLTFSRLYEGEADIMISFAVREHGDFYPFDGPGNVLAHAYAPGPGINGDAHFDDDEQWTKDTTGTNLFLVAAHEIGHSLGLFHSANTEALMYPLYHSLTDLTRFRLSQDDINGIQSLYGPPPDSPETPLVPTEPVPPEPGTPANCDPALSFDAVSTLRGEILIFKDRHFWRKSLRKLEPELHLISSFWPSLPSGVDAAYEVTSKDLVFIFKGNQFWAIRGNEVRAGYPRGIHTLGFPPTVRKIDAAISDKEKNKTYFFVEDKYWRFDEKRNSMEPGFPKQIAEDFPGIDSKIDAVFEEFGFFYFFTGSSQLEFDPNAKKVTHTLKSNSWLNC
The target of assay [4] is various metalloproteases (Homo sapiens, UniProt P45452). The assay is described as above. Type of assay: biochemical. The note with it: MMP13; Table 4, in vitro. The procedure:
as §1

Consider “3-(1-{(Z)-[(aminocarbonyl)imino][(2-methoxyethyl)amino]methyl}piperidin-4-yl)-N^1-hydroxy-N^2-[(4-phenoxyphenyl)sulfonyl]alaninamide [Compound 44]”, for which the IC50 (in general, the point on the concentration scale where inhibition reaches its midpoint) in the assay with various metalloproteases [1] (MMP1, read-out: MMP1 IC50) is under 50 nM; with various metalloproteases [1] (MMP2, read-out: MMP2 IC50), under 50 nM; in the assay on various metalloproteases [1] (MMP3, read-out: MMP3 IC50), under 50 nM; in the assay with various metalloproteases [1] (MMP13, read-out: MMP13 IC50) it was under 50 nM.
“3-{1-[(Z)-(cyanoimino)(propylamino)methyl]piperidin-4-yl}-N^1-hydroxy-N^2-[(4-phenoxyphenyl)sulfonyl]alaninamide [Compound 41]”: the IC50 against hADAM-10 was under 50 nM; in the assay on various metalloproteases [1] (MMP1, read-out: MMP1 IC50), 50 to 20000 nM; in the assay with various metalloproteases [1] (MMP3, read-out: MMP3 IC50), under 50 nM; with various metalloproteases [1] (MMP13, read-out: MMP13 IC50) it was under 50 nM; in the assay on various metalloproteases [1] (TACE, read-out: TACE IC50) it was under 50 nM.
On to `N=C(N)NCCC[C@@H](NS(=O)(=O)c1ccc(Oc2ccccc2)cc1)C(=O)NO` [Compound 2, N^1-hydroxy-N^2-[(4-phenoxyphenyl)sulfonyl]-D-argininamide], for which the IC50 is under 50 nM on hADAM-10; 50 to 20000 nM in the assay on various metalloproteases [1] (MMP1, read-out: MMP1 IC50); under 50 nM in the assay on various metalloproteases [1] (MMP2, read-out: MMP2 IC50); 50 to 1000 nM in the assay on various metalloproteases [1] (MMP3, read-out: MMP3 IC50); under 50 nM with various metalloproteases [1] (MMP8, read-out: MMP8 IC50); under 50 nM in the assay with various metalloproteases [1] (MMP9, read-out: MMP9 IC50). For the same compound, the IC50 was under 50 nM in the assay with various metalloproteases [1] (MMP13, read-out: MMP13 IC50) and 50 to 1000 nM with various metalloproteases [1] (TACE, read-out: TACE IC50).
As for `NCCCC[C@@H](NS(=O)(=O)c1ccc(Oc2ccccc2)cc1)C(=O)NO` [Compound 13, N^1-hydroxy-N^2-{[4-(phenyloxy)phenyl]sulfonyl}-D-lysinamide], the IC50 on hADAM-10 is under 50 nM; in the assay with various metalloproteases [1] (MMP1, read-out: MMP1 IC50), under 50 nM; in the assay with various metalloproteases [1] (MMP2, read-out: MMP2 IC50), under 50 nM; with various metalloproteases [1] (TACE, read-out: TACE IC50) it was 50 to 1000 nM.
`N=C(N)NCCC[C@@H](NS(=O)(=O)c1ccc(Oc2ccc(F)cc2)nc1)C(=O)NO` [Compound 68, N^2-({6-[(4-fluorophenyl)oxy]pyridin-3-yl}sulfonyl)-N^1-hydxoxy-D-argininamide]: the IC50 is under 50 nM against hADAM-10; 50 to 20000 nM with various metalloproteases [1] (MMP1, read-out: MMP1 IC50); 50 to 1000 nM in the assay on various metalloproteases [1] (MMP3, read-out: MMP3 IC50); under 50 nM with various metalloproteases [1] (MMP13, read-out: MMP13 IC50).
In the case of `N#Cc1ccc(C[C@@H](NS(=O)(=O)c2cc(F)c(Oc3ccc(F)cc3)c(F)c2)C(=O)NO)cc1` [Compound 72, 4-cyano-N^2-({3,5-difluoro-4-[(4-fluorophenyl)oxy]phenyl}sulfonyl)-N^1-hydroxy-D-phenylalaninamide], the IC50 against hADAM-10 is 50 to 1000 nM; with various metalloproteases [1] (MMP1, read-out: MMP1 IC50), 50 to 20000 nM; in the assay on various metalloproteases [1] (MMP2, read-out: MMP2 IC50), under 50 nM; in the assay on various metalloproteases [1] (MMP3, read-out: MMP3 IC50), 50 to 1000 nM; in the assay on various metalloproteases [1] (MMP13, read-out: MMP13 IC50), under 50 nM.
As for `CN(C)CC[C@@H](NS(=O)(=O)c1cc(F)c(Oc2ccc(Cl)cc2)c(F)c1)C(=O)NO` [Compound 89, (2R)-N^2-[({4-[(4-chlorophenyl)oxy]-3,5-difluorophenyl}sulfonyl)amino]-4-(dimethylamino)-N^1-hydroxybutanamide], the IC50 is under 50 nM on hADAM-10; under 50 nM with various metalloproteases [1] (MMP2, read-out: MMP2 IC50); 50 to 20000 nM in the assay on various metalloproteases [1] (MMP3, read-out: MMP3 IC50); 50 to 1000 nM in the assay on various metalloproteases [1] (MMP13, read-out: MMP13 IC50).
Regarding `CC(C)(SCC(=O)N1CCOCC1)[C@@H](NS(=O)(=O)c1cc(F)c(Oc2ccc(Cl)cc2)c(F)c1)C(=O)NO` [Compound 91, N^2-({4-[(4-chlorophenyl)oxy]-3,5-difluorophenyl}sulfonyl)-N^1-hydroxy-3-[(2-morpholin-4-yl-2-oxoethyl)thio]-D-valinamide], the IC50 in the assay with various metalloproteases [1] (MMP2, read-out: MMP2 IC50) is under 50 nM.
`O=C(NO)C(NS(=O)(=O)c1ccc(Oc2ccc(F)cc2)cc1)C1CCNCC1` (centres unmarked) [Compound 97, N^2-[({4-[(4-fluorophenyl)oxy]phenyl}sulfonyl)amino]-N^1-hydroxy-2-piperidin-4-ylacetamide]: the half-inhibitory concentration (IC50) was under 50 nM on hADAM-10; under 50 nM with various metalloproteases [1] (MMP3, read-out: MMP3 IC50); under 50 nM with various metalloproteases [1] (MMP13, read-out: MMP13 IC50).
In the case of `Cc1cc(C)cc(Oc2c(F)cc(S(=O)(=O)NC(C(=O)NO)C3CCNCC3)cc2F)c1` (centres unmarked) [Compound 99, N^2-[({4-[(3,5-dimethylphenyl)oxy]-3,5-difluorophenyl}sulfonyl)amino]-N^1-hydroxy-2-piperidin-4-ylacetamide], the IC50 at hADAM-10 was under 50 nM; in the assay on various metalloproteases [1] (MMP2, read-out: MMP2 IC50) it was under 50 nM; in the assay on various metalloproteases [1] (MMP3, read-out: MMP3 IC50) it was under 50 nM; in the assay on various metalloproteases [1] (MMP13, read-out: MMP13 IC50), under 50 nM.
`NCC1CCC(C[C@H](NS(=O)(=O)c2ccc(-c3cccc(F)c3)nc2)C(=O)NO)CC1` (some centres unmarked) [Compound 105, 3-[4-(aminomethyl)cyclohexyl]-N^2-{[6-(3-fluorophenyl)pyridin-3-yl]sulfonyl}-N^1-hydroxyalaninamide]: the IC50 is under 50 nM against hADAM-10, under 50 nM against various metalloproteases [2], 50 to 1000 nM on various metalloproteases [3] and under 50 nM against various metalloproteases [4].
Regarding `Cc1cc(C)cc(Oc2c(F)cc(S(=O)(=O)N[C@@H](CC3CCC(CN)CC3)C(=O)NO)cc2F)c1` (some centres unmarked) [Compound 106, 3-[4-(aminomethyl)cyclohexyl]-N^2-({4-[(3,5-dimethylphenyl)oxy]-3,5-difluorophenyl}sulfonyl)-N^1-hydroxyalaninamide], the IC50 at hADAM-10 lay in the range of 50 to 20000 nM.
For “N^6-[(E)-(cyanoimino)(propylamino)methyl]-N^1-hydroxy-N^2-[(4-phenoxyphenyl)sulfonyl]-D-lysinamide [Compound 23]”, the IC50 is under 50 nM at hADAM-10; 50 to 1000 nM in the assay on various metalloproteases [1] (MMP1, read-out: MMP1 IC50); under 50 nM with various metalloproteases [1] (MMP2, read-out: MMP2 IC50); under 50 nM in the assay with various metalloproteases [1] (MMP3, read-out: MMP3 IC50); under 50 nM in the assay on various metalloproteases [1] (MMP13, read-out: MMP13 IC50); under 50 nM with various metalloproteases [1] (TACE, read-out: TACE IC50).
